Source: paper PMC8824665, “Rapid Assessment of Insect Steroid Hormone Entry Into Cultured Cells” (Frontiers in Physiology, 2022)
Where two headings read alike, the source gives them in different places.

Biological target: T1, EcR-RXR (EcR-LgBiT / RXR-SmBiT) (Drosophila melanogaster, UniProt P34021)
T1 construct: full-length EcR with C-terminal LgBiT (pFC34K-EcR) and RXR with C-terminal SmBiT (pFC36K-RXR), expressed in HEK293T cells; heterodimer; probably human RXR-alpha
T1 sequence (P34021 1-878): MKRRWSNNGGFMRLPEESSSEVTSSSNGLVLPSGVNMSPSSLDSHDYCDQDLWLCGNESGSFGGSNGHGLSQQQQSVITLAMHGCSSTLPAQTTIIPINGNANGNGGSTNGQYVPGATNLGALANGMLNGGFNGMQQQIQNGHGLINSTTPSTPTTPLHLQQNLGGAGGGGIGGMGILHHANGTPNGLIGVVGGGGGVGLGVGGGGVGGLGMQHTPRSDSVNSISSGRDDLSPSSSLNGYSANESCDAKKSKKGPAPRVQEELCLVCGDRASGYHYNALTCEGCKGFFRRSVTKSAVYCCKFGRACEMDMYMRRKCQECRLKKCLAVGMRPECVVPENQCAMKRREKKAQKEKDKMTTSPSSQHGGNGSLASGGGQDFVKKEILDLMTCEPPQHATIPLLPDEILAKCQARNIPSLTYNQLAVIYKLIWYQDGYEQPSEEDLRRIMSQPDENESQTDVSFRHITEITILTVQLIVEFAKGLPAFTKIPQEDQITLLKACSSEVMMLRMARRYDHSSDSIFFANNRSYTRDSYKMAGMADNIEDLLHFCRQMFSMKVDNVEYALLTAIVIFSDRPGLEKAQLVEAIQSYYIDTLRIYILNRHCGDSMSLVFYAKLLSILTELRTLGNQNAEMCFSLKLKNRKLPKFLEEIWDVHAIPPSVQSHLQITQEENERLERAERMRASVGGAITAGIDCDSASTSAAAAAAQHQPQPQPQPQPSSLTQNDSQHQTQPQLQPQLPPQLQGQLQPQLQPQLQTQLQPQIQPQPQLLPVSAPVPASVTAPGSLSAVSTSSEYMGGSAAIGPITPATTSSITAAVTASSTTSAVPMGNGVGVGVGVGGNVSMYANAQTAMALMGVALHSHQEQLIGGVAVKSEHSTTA
T1 sequence (P19793 1-462 partner): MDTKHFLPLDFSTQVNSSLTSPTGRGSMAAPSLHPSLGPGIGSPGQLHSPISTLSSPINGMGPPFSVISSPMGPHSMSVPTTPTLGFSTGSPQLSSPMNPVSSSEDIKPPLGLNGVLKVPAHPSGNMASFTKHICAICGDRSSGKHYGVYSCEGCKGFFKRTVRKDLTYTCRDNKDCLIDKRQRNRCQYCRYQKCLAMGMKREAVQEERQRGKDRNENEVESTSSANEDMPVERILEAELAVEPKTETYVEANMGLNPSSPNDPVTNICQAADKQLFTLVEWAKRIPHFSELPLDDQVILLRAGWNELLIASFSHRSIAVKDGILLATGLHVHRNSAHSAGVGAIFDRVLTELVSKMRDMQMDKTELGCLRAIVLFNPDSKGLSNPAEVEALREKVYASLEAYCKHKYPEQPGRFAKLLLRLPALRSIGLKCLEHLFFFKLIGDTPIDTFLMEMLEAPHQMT
Assay: NanoBiT split-luciferase assay of ligand-induced EcR-RXR heterodimerization in live HEK293T cells
Assay type: cell-based

Structure (SMILES)	EC50 (read-out: EC50)	EC50
CC(C)(O)CC[C@@H](O)[C@](C)(O)[C@H]1CC[C@@]2(O)C3=CC(=O)[C@@H]4C[C@@H](O)[C@@H](O)C[C@]4(C)[C@H]3CC[C@]12C [20E, 20-hydroxyecdysone]	2.2 µM	
Cc1cc(C)cc(C(=O)N(NC(=O)c2ccc3c(c2C)CCCO3)C(C)(C)C)c1 [CF, chromafenozide]		4.76 µM
